Measured values: the NIST ThermoML archive (doi:10.1016/j.jct.2017.03.006)

Assay: molar heat capacity at constant pressure; xn = mol fraction of the nth substance listed
Settings: Liquid, Flow calorimetry

Cc1ccc(C)c(C)c1 [1,2,4-trimethylbenzene] + CCCCO
molar heat capacity at constant pressure [J/K/mol]
Settings | x2 = 0 | x2 = 0.1002 | x2 = 0.2327 | x2 = 0.3969 | x2 = 0.53 | x2 = 0.637 | x2 = 0.7176 | x2 = 0.7975 | x2 = 0.8594 | x2 = 0.9131
293.15 K, 100 kPa | 216.2 | 220 | 219.5 | 214 | 209.9 | 203.6 | 197 | 192.5 | 186.5 | 181.9
293.15 K, 5000 kPa | 215 | 219 | 219 | 213.4 | 208.8 | 203.3 | 196 | 191.8 | 186.3 | 181.4
293.15 K, 10000 kPa | 213.3 | 217.3 | 218.1 | 212.8 | 207.7 | 202.4 | 194.9 | 190.8 | 185.1 | 181.1
293.15 K, 15000 kPa | 212.5 | 216 | 217.4 | 212.1 | 206.3 | 202 | 194.2 | 190.2 | 184.1 | 180.7
293.15 K, 20000 kPa | 210.8 | 215.4 | 216.9 | 211.3 | 205.9 | 201.1 | 193.3 | 189.6 | 183.4 | 180.3
293.15 K, 25000 kPa | 209.8 | 214.5 | 216.3 | 210.3 | 204.7 | 199.9 | 192 | 188.6 | 182.4 | 180
313.15 K, 100 kPa | 222.5 | 230.5 | 231.1 | 230 | 224.9 | 220.4 | 214.4 | 210.3 | 204.5 | 200.7
313.15 K, 5000 kPa | 221.2 | 229.4 | 230.1 | 228.9 | 223 | 218.9 | 212.6 | 209.1 | 203.7 | 199.4
313.15 K, 10000 kPa | 219.6 | 228.5 | 229.8 | 227.4 | 222.3 | 217.6 | 211.5 | 208.6 | 203.3 | 198.8
313.15 K, 15000 kPa | 218.5 | 227.3 | 228.5 | 226.4 | 220.5 | 216.5 | 210.2 | 207.8 | 202.6 | 197.7
313.15 K, 20000 kPa | 217.7 | 225.8 | 227.3 | 225.4 | 219.2 | 215.4 | 209.3 | 206.4 | 202 | 196.6
313.15 K, 25000 kPa | 217.1 | 225.5 | 227 | 224.3 | 218.4 | 213.6 | 208.1 | 206.1 | 201.3 | 196

CCC(C)O (stereo not drawn) [butan-2-ol] + Cc1ccc(C)c(C)c1
molar heat capacity at constant pressure [J/K/mol], x1 = 1
Settings | 100 kPa | 5000 kPa | 10000 kPa | 15000 kPa | 20000 kPa | 25000 kPa
293.15 K | 189.1 | 187.1 | 185.5 | 185.2 | 183.6 | 182.7
313.15 K | 214.9 | 213.1 | 211.1 | 209.4 | 207.2 | 204.9

Cc1ccc(C)c(C)c1 [1,2,4-trimethylbenzene] + CCC(C)O
molar heat capacity at constant pressure [J/K/mol]
Settings | x2 = 0 | x2 = 0.1001 | x2 = 0.3 | x2 = 0.5298 | x2 = 0.6001 | x2 = 0.7001 | x2 = 0.7997 | x2 = 0.9001
293.15 K, 100 kPa | 216.2 | 219.6 | 221.6 | 223.7 | 216 | 213 | 206.9 | 200.5
293.15 K, 5000 kPa | 215 | 218.1 | 220.8 | 222.1 | 215.3 | 211.7 | 205.2 | 198.5
293.15 K, 10000 kPa | 213.3 | 217 | 219.6 | 220.3 | 213.9 | 210.4 | 203.7 | 196.8
293.15 K, 15000 kPa | 212.5 | 216.2 | 219 | 218.9 | 213.2 | 208.5 | 201.9 | 195.5
293.15 K, 20000 kPa | 210.8 | 215.2 | 218.3 | 217.6 | 211.7 | 206.9 | 200.7 | 194.6
293.15 K, 25000 kPa | 209.8 | 214.6 | 217.3 | 215.9 | 210.5 | 205.5 | 199.7 | 193.3
313.15 K, 100 kPa | 222.5 | 231.1 | 235.8 | 234.2 | 233.8 | 232.1 | 226.9 | 224.2
313.15 K, 5000 kPa | 221.2 | 230.3 | 233.7 | 232.8 | 232.6 | 230 | 224.8 | 221.1
313.15 K, 10000 kPa | 219.6 | 229.5 | 232.6 | 231.9 | 230.1 | 227.4 | 222.4 | 218.9
313.15 K, 15000 kPa | 218.5 | 228.8 | 231.1 | 230.9 | 229 | 225.3 | 220.6 | 217.3
313.15 K, 20000 kPa | 217.7 | 227.7 | 229.9 | 229.6 | 227.2 | 223.8 | 219.3 | 216
313.15 K, 25000 kPa | 217.1 | 226.4 | 229.5 | 228.2 | 225.6 | 222.7 | 218.1 | 214.1
